Measurements from publication PMC11558128 (Advanced Science, 2024).
Substitutions are numbered along the chain they refer to. Positions of bridges follow the written chain, without caps; N, C: chain ends. Residues, ends and D or L forms follow the SMILES beside them.

Key:
Test in all cases: cell-based
[1] = target: T1, hNav1.7 (Homo sapiens, UniProt Q15858); details: whole-cell patch clamp, HEK293T, hNav1.7 with β1 and β2; held at -90 mV, step to 0 mV; mean ± S.E.M., n = 3-7; SEM; read-out: IC50 for hNav1.7
T1 construct: expressed in transfected cells; host or cells: HEK293T
T1 sequence (O60939 30-215): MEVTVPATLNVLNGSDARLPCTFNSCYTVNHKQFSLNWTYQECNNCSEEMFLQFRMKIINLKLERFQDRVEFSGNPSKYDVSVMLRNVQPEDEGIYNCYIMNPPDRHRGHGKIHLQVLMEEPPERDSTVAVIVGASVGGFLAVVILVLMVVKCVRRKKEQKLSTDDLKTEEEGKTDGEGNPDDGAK
T1 sequence (Q15858 other isoform, or with tags, fused parts or gaps): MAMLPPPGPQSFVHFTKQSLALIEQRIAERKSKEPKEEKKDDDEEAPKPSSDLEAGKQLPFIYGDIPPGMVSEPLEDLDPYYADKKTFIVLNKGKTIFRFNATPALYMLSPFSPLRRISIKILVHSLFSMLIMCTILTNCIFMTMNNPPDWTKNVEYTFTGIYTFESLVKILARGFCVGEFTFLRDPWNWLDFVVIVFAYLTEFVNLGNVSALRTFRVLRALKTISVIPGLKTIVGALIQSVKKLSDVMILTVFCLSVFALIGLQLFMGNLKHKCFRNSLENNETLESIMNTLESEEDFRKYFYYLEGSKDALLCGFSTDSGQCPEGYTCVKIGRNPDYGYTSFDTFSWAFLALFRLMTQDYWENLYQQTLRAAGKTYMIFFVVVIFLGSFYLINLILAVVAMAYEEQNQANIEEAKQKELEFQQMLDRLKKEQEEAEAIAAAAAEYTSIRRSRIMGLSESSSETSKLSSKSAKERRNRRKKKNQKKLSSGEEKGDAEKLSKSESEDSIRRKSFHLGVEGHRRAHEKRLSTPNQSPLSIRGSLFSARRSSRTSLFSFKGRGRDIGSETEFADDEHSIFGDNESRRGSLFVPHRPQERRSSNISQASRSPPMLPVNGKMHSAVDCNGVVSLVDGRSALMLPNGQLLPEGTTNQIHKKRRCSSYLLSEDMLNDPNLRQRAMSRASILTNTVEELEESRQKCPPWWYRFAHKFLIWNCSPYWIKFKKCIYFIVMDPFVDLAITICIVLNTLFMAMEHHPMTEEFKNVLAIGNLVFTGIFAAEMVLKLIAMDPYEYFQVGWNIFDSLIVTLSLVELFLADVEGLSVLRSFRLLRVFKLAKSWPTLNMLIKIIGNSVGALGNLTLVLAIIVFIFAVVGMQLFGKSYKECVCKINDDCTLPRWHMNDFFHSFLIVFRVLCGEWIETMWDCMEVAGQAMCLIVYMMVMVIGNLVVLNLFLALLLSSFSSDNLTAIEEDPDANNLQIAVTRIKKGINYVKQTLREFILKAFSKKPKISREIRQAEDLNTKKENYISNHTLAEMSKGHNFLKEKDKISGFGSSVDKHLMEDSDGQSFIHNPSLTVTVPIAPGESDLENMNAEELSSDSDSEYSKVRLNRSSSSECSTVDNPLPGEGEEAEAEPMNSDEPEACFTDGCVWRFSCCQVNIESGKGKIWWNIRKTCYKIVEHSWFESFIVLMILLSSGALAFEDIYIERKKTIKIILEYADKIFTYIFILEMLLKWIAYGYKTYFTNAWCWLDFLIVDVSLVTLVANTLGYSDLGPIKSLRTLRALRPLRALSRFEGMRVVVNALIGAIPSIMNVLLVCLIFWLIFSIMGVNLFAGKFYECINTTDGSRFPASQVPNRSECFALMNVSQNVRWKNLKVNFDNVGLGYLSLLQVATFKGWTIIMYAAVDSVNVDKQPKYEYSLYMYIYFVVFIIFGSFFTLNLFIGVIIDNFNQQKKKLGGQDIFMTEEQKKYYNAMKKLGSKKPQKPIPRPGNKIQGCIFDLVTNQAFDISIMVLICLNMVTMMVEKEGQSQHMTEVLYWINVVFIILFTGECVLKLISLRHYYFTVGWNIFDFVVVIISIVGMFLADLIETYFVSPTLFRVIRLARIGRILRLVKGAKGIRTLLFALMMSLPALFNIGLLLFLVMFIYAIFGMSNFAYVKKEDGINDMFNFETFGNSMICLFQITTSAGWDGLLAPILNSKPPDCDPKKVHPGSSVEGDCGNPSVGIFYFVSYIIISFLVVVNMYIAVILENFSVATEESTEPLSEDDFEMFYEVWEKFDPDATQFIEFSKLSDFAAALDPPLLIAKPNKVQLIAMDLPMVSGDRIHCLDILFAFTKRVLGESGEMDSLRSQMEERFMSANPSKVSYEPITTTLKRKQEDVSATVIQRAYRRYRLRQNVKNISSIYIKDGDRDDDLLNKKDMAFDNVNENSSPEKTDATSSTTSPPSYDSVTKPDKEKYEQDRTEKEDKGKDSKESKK
T1 sequence (Q07699 19-218, further chain): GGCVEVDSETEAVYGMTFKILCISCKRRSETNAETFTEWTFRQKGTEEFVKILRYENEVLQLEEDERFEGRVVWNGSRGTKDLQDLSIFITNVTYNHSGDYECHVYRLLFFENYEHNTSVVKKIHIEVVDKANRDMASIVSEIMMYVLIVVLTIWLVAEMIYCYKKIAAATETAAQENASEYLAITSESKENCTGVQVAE

[2] = target: T2, rKv4.2 V278A (Rattus norvegicus, UniProt Q63881, V278A); details: mean ± SEM
T2 construct: expressed in transfected cells; host or cells: HEK293T
T2 sequence (Q63881 1-630 V278A): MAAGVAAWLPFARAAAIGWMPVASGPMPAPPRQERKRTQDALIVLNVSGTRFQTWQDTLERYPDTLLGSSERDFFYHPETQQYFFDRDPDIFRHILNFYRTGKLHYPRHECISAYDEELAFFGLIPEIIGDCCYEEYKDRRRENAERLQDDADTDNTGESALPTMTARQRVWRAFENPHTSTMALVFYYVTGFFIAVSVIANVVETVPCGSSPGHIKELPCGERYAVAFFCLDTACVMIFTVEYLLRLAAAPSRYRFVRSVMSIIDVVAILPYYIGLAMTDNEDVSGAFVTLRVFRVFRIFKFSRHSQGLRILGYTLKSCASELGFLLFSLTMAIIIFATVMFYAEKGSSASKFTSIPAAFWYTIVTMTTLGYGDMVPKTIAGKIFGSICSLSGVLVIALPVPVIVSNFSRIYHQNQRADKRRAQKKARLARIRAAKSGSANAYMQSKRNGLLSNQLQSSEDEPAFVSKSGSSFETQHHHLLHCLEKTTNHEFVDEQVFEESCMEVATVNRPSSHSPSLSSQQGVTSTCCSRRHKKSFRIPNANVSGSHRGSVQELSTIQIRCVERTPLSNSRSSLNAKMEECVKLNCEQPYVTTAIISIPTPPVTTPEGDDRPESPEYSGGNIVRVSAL

[3] = target: T3, rKv4.2 M279A (Rattus norvegicus, UniProt Q63881, M279A); details: mean ± SEM
T3 construct: expressed in transfected cells; host or cells: HEK293T
T3 sequence (Q63881 1-630 M279A): T2 sequence (Q63881 1-630 V278A) with A278V, M279A

[4] = target: T4, rKv4.2 E283K (Rattus norvegicus, UniProt Q63881, E283K); details: mean ± SEM
T4 construct: expressed in transfected cells; host or cells: HEK293T
T4 sequence (Q63881 1-630 E283K): T2 sequence (Q63881 1-630 V278A) with A278V, E283K

[5] = target: T5, rKv4.2 D284K (Rattus norvegicus, UniProt Q63881, D284K); details: mean ± SEM; SEM
T5 construct: expressed in transfected cells; host or cells: HEK293T
T5 sequence (Q63881 1-630 D284K): T2 sequence (Q63881 1-630 V278A) with A278V, D284K

CC[C@H](C)[C@@H]1NC(=O)[C@@H]2CSSC[C@@H]3NC(=O)[C@H](C(C)C)NC(=O)[C@H](CC(C)C)NC(=O)[C@H](CC(N)=O)NC(=O)[C@@H]4CCCN4C(=O)[C@H](CCCNC(=N)N)NC(=O)[C@H](CSSC[C@H](NC(=O)[C@@H](N)CC(=O)O)C(=O)N[C@@H](CC(C)C)C(=O)NCC(=O)N[C@@H](C)C(=O)N[C@@H](Cc4ccccc4)C(=O)N[C@@H](CCCNC(=N)N)C(=O)N[C@@H](CCCCN)C(=O)N2)NC(=O)[C@H](CSSC[C@@H](C(=O)N[C@@H](CCCCN)C(=O)N[C@@H](Cc2ccc(O)cc2)C(=O)N[C@H](C(=O)N[C@@H](Cc2ccccc2)C(N)=O)C(C)C)NC(=O)[C@H](Cc2c[nH]c4ccccc24)NC(=O)[C@H](CCCNC(=N)N)NC(=O)[C@H](Cc2cnc[nH]2)NC(=O)[C@H](CC(C)C)NC(=O)[C@H](CCCNC(=N)N)NC(=O)[C@H](CO)NC3=O)NC(=O)[C@H](CCCCN)NC(=O)[C@H](CC(=O)O)NC(=O)[C@H](CC(N)=O)NC(=O)[C@H](CC(=O)O)NC(=O)[C@@H]2CCCN2C1=O [mGpTx1] (H-DCLGAFRKCIPDNDKCCRPNLVCSRLHRWCKYVF-NH2; disulfide 2-17, 9-23, 16-30)
IC50 [1]: 8 ± 1.2 nM | IC50 [2]: 2850 ± 1310 nM | IC50 [3]: 16500 ± 9010 nM | IC50 [4]: 646 ± 135 nM | IC50 [5]: 663 ± 179 nM
